Measured values from article PMC8175350, “Drug repurposing screens identify chemical entities for the development of COVID-19 interventions” (Nature Communications, 2021).
Where “and” joins values, the source holds several entries; their conditions need not be identical. Identical values can stand only once. Counter-ions that a name gives are not always drawn. Like-named read-outs stand apart in the source and are kept apart here.

Columns and labels:
[1] = tested on: COVID-19; details: ref [9]; cited from earlier work
[2] = tested on: SARS-CoV-2; test: microbe, parasite or virus in culture; type: cell-based; details: for Emax: Severe acute respiratory syndrome coronavirus 2, HeLa-ACE2, 24 h, read-out: HeLa-ACE2 CoV-2 Sinf Average; for EC50: read-out: HeLa-ACE2 CoV-2 EC50 GeoMean; for HeLa-ACE2 SI: selectivity index, uninfected HeLa-ACE2 CC50 / SARS-CoV-2 EC50
[3] = Uninfected HeLa-ACE2 24 h live/dead cytotoxicity counter screen; type: cell-based, human; details: human, uninfected HeLa-ACE2 cells, read-out: HeLa-ACE2 uninfected cytotoxicity CC50 GeoMean
[4] = tested on: HeLa-ACE2 cells; test: as above; type: cell-based, human
[5] = tested on: SARS-CoV-2; test: microbe, parasite or virus in culture; type: cell-based; details: for EC50: Severe acute respiratory syndrome coronavirus 2, Calu-3, read-out: Calu-3 CoV-2 EC50 GeoMean
[6] = tested on: SARS-CoV-2; test: microbe, parasite or virus in culture; type: cell-based; details: for EC50: read-out: HeLa-ACE2 TOA CoV-2 EC50 GeoMean; for SARS-CoV-2 % infected cells: 10 µM after 1 h infection
[7] = tested on: HeLa-ACE2 cells; test: cells; type: cell-based, human; details: Homo sapiens, HeLa-ACE2; read-out: HeLa-ACE2 TOA cell count EC50 GeoMean
[8] = tested on: Calu-3 cells
[9] = tested on: HepG2; details: human, 72 h
[10] = tested on: HEK293T; details: human, 72 h
[11] = tested on: HeLa-ACE2 cells; test: cells; details: Homo sapiens
[12] = tested on: Calu-3 cells; test: cells; details: Homo sapiens
[13] = in vitro; details: human, Calu-3 uninfected cytotoxicity CC50 GeoMean
[14] = in vitro; details: human
[15] = in vitro; details: human; remark: listed apart in the source
[16] = tested on: SARS-CoV-2; type: cell-based; details: combination with remdesivir
[17] = tested on: HeLa-ACE2 cells; test: Total cell count in the HeLa-ACE2 TOA (time of addition) assay; type: cell-based, human; details: Homo sapiens, HeLa-ACE2; read-out: HeLa-ACE2 TOA cell count EC50 GeoMean
[18] = HepG2 72 h CellTiter-Glo cytotoxicity; details: human, HepG2 cells
[19] = tested on: HepG2; test: HepG2 72 h CellTiter-Glo cytotoxicity; details: 72 h
[20] = HEK293T 72 h CellTiter-Glo cytotoxicity; details: human, HEK293T cells
[21] = tested on: HEK293T; test: HEK293T 72 h CellTiter-Glo cytotoxicity; details: 72 h
[22] = Uninfected Calu-3 48 h Cell-Titer Glo cytotoxicity counter screen; details: human, uninfected Calu-3 cells, Calu-3 uninfected cytotoxicity CC50 GeoMean
[23] = tested on: Calu-3 cells; test: as above; details: human, uninfected Calu-3 cells, 48 h
[24] = curve plateau at infinite concentration
[25] = Severe acute respiratory syndrome coronavirus 2, HeLa-ACE2, detail block
[26] = Severe acute respiratory syndrome coronavirus 2, HeLa-ACE2, detail column

interferon
mortality of hospitalized COVID-19 patients [1]: failed to reduce mortality

Oc1ccc(Nc2ccnc3cc(Cl)ccc23)cc1CN1CCCC1 [Amopyroquine]
Emax [2, 24]: 100% | EC50 [2, 25]: 904 nM | HeLa-ACE2 SI [2]: 19.02 | CC50 at 24 h ([3]; detail block): 17.2 µM | HeLa-ACE2 uninfected cytotoxicity Sinf Average [4, 24]: -100% | Emax ([5]; Severe acute respiratory syndrome coronavirus 2, Calu-3, 48 h, curve plateau at infinite concentration, read-out: Calu-3 CoV-2 Sinf Average): 100% | EC50 ([5]; detail block): > 9.98 µM | Calu-3 SI ([5]; selectivity index, uninfected Calu-3 CC50 / Calu-3 SARS-CoV-2 EC50): 1.87 | Emax ([6]; Severe acute respiratory syndrome coronavirus 2, HeLa-ACE2, 10 h, curve plateau at infinite concentration, read-out: HeLa-ACE2 TOA CoV-2 Sinf Average): 100% | EC50 [6, 25]: > 9.59 µM | TOA:HeLa-ACE2 EC50 Ratio ([6]; TOA EC50 / HeLa-ACE2 SARS-CoV-2 EC50): 10.603 | EC50 [7]: > 9.59 µM | uninfected Calu-3 CC50 [8]: 18.669 ×÷ 1.171 (n=3) μM | Calu-3 uninfected cytotoxicity Sinf Average ([8]; human, 48 h): -96% | HepG2 72-hour cytotoxicity Sinf Average [9]: -102% | HEK293T 72-hour cytotoxicty Sinf Average [10]: -103% | EC50 ([11]; HeLa-ACE2, read-out: HeLa-ACE2 cell count EC50 GeoMean, detail block): > 9.59 µM | EC50 ([12]; Calu-3, read-out: Calu-3 cell count EC50 GeoMean, detail block): > 9.98 µM | CC50 at 48 h [13]: 18.7 µM | CC50 at 72 h [14]: 6.39 µM | CC50 at 72 h [15]: 6.31 µM

CCN(CCO)CCCC(C)Nc1ccnc2cc(Cl)ccc12 (centres unmarked) [Hydroxychloroquine sulfate]
Emax [2]: 100% | EC50 [2, 26]: 458 nM | HeLa-ACE2 SI [2]: > 40.04 | CC50 at 24 h [3]: > 18.3 µM | HeLa-ACE2 uninfected cytotoxicity Sinf Average ([4]; human, uninfected HeLa-ACE2 cells, 24 h): -99% | EC50 [5]: > 9.99 µM | TOA:HeLa-ACE2 EC50 Ratio [6]: 20.968 | SARS-CoV-2 % infected cells ([6]; 4:00:00 post infection): 0.3802% and 0.1721% and 0.1129% | SARS-CoV-2 % infected cells ([6]; 5:00:00): 0.24% and 0.7413% and 0.2751% | SARS-CoV-2 % infected cells ([6]; 6:00:00): 11.7654% and 10.6398% and 10.3646% | SARS-CoV-2 % infected cells ([6]; 7:00:00): 25.8166% and 25.8417% and 29.0337% | SARS-CoV-2 % infected cells ([6]; 8:00:00): 31.116% and 29.6088% and 30.8104% | SARS-CoV-2 % infected cells ([6]; 10:00:00): 33.0276% and 34.8116% and 35.0891% | SARS-CoV-2 % infected cells ([6]; 11:00:00): 35.46% and 36.5434% and 36.8817% | SARS-CoV-2 % infected cells ([6]; 12:00:00): 33.0004% and 35.9224% and 38.4986% | SARS-CoV-2 % infected cells ([6]; 24:00:00): 45.3401% and 44.0948% and 41.0805% | activity when treatment was initiated at 1 hpi ([6]; HeLa-ACE2, 10 µM): Loss of activity | EC50 [6, 26]: > 9.61 µM | HeLa-ACE2 synergy score with remdesivi [16]: -1.572 δ | EC50 [17]: > 9.61 µM | cytotox ([8]; human): 13.7874 | Emax ([11]; HeLa-ACE2, 24 h, read-out: HeLa-ACE2 cell count Sinf Average): -47% | EC50 ([11]; HeLa-ACE2, read-out: HeLa-ACE2 cell count EC50 GeoMean): > 5.88 µM | EC50 ([12]; Calu-3, read-out: Calu-3 cell count EC50 GeoMean): > 9.99 µM | mortality of hospitalized COVID-19 patients [1]: failed to reduce mortality | CC50 at 72 h [18]: 3.62 µM | HepG2 72-hour cytotoxicity Sinf Average [19]: -100% | CC50 at 72 h [20]: 10.1 µM | HEK293T 72-hour cytotoxicty Sinf Average [21]: -101% | CC50 at 48 h [22]: > 24.7 µM | Calu-3 uninfected cytotoxicity Sinf Average [23]: -100%
